From patent publication US9962383B2, “Compounds, compositions and methods of agelastatin alkaloids” (Massachusetts Institute of Technology, priority 2013, dated 2018)

Key:
[1] = tested on: human cell lines (U-937, HeLa, A549, BT549, IMR90); assay: Ability to induce cell death in the panel of five human cell lines (Table 3); format: cell-based; conditions: 48-hour exposure, 1 nM to 10 μM, cell lines of Table 3
Description: Six (−)-agelastatins along with eight closely related derivatives prepared in the above examples were tested (Table 3). The six (−)-agelastatin alkaloids (1-6, respectively), (−)-O-methyl-di-epi-agelastatin A (50), (−)-dehydroagelastatin A (51), (−)-di-epi-agelastatin C (52), (+)-O-methyl-pre-agelastatin A and D (39 and 53, respectively), along with bicyclic pyrroles (+)-44, (+)-45, and triazone (+)-48 were tested for their ability to induce cell death in four human cancer cell lines (U-937, lymphoma; HeLa, cervical carcinoma; A549, non-small cell lung carcinoma; and BT549, breast carcinoma) and one immortalized normal human cell line (IMR90, lung fibroblasts) after a 48-hour exposure. […] Furthermore, enhanced activities in U-937 (20×) cell relative to the other cell lines (Table 3) were observed.
Adherent cells (HeLa, A549, BT549, and IMR90) were added into 96-well plates (5,000 cells/well for HeLa cell line; 2,000 cells/well for A549, BT549, and IMR90 cell lines) in 100 μL media and were allowed to adhere for 2-3 hours. Compounds were solubilized in DMSO as 100× stocks, added directly to the cells (100 μL final volume), and tested over a range of concentrations (1 nM to 10 μM) in triplicate (1% DMSO final) on a half-log scale. DMSO and cell-free wells served as the live and dead control, respectively. After 48 h of continuous exposure, the plates were evaluated using the SRB colorimetric assay as described previously (V. Vichai, K. Kirtikara, Nature Prot., 2006, 1, 1112). Briefly, media was removed from the plate, and cells were fixed by the addition of 100 μL cold 10% trichloroacetic acid in water. After incubating at 4° C. for 1 h, the plates were washed in water and allowed to dry. Sulforhordamine B was added as a 0.057% solution in 1% acetic acid (100 μL), and the plates were incubated at room temperature for 30 min, washed in 1% acetic acid, and allowed to dry. The dye was solubilized by adding 10 mM Tris base solution (pH 10.5, 200 μL) and incubating at room temperature for 30 min Plates were read at λ=510 nm. IC50 values were determined from three or more independent experiments using TableCurve (San Jose, Calif.).
In a 96-well plate, compounds were pre-added as DMSO stocks (1% final) in triplicate to achieve final concentrations of 1 nM to 10 μM on a half log scale. DMSO and cell-free wells served as the live and dead control, respectively. Suspension cells (U-937, CEM, CA46, Daudi, HL-60, and Jurkat; 10,000 cells/well) cells were distributed in 100 μL media to the compound-containing plate. After 48 h, cell viability was assessed by adding 20 μL of a PMS/MTS solution (A. H. Cory, T. C. Owen, J. A. Barltrop, J. G. Cory, Cancer Commun., 1991, 3, 207) to each well, allowing the dye to develop at 37° C. until the live control had processed MTS, and reading the absorbance at λ=490 nm. IC50 values were determined from three or more independent experiments using TableCurve (San Jose, Calif.).

[2] = tested on: Human Erythrocytes; assay: Hemolysis assay using human erythrocytes; format: cell-based; conditions: hemolysis after 2 h
Description: FIG. 1. Hemolytic activity of (−)-agelastatins A-F and advanced intermediates. Compounds were tested at 333 μM and hemolysis was evaluated after 2 h. DMSO and water served as the negative and positive controls for hemolysis, respectively. Error bars represent standard deviation of the mean, n=3.
To prepare the erythrocytes, 0.1 mL of human blood was centrifuged (10,000 g, 2 min). The pellet was washed three times with saline (0.9% NaCl) via gentle resuspension and centrifugation (10,000 g, 2 min). Following the final wash, the erythrocytes were resuspended in 0.4 mL red blood cell (RBC) buffer (10 mM Na2HPO4, 150 mM NaCl, 1 mM MgCl2, pH 7.4).
DMSO stocks of compounds were added to 0.5 mL tubes in singlicate (1 μL, 3.3% DMSO final). The stocks were diluted with 19 μL RBC buffer. Positive control tubes contained DMSO in water, and negative control tubes contained DMSO in RBC buffer. A suspension of washed erythrocytes (10 μL) was added to each tube, and samples were incubated at 37° C. for 2 hours. Samples were centrifuged (10,000 g, 2 min), and the supernatant was transferred to a clear, sterile 384-well plate. The absorbance of the supernatants was measured at λ=540 nm, and percent hemolysis was calculated relative to the average absorbance values measured for the controls.

[3] = tested on: tubulin dynamics; assay: Tubulin microscopy with HeLa cells; format: cell-based, human; conditions: 16 hours, confocal microscopy
Description: HeLa cells were treated with compound for 16 hours, fixed, stained, and visualized using confocal microscopy.
Round, 1.5 mm coverslips (No. 1.5) were sterilized with ultraviolet light and placed in a 12-well plate. HeLa cells (100,000 cells/well) were added and allowed to adhere for eight hours. Compounds were then added as DMSO stocks to achieve a final DMSO concentration of 1%, and the plates were returned to the incubator for 16 hours.
Following incubation, the media was removed, and the coverslips were fixed with 0.5 mL Microtubulin Stabilizing Buffer (MTSB, 80 mM PIPES, pH 6.8, 1 mM MgCl2, 5 mM EGTA, 0.5% TX-100)+0.5% glutaraldehyde for 10 minutes at room temperature, after which the fixative was removed and the sample was quenched with the addition of 0.5 mL of freshly-prepared 1 mg/mL NaBH4 in PBS. After a 5 min incubation, the solution was removed by aspiration and the coverslips were washed with PBS.
Coverslips were transferred to parafilm-lined culture dishes (cell-side up), and 40 μL of 50 μg/mL RNase A in Antibody Diluting Solution (AbDil, PBS, pH 7.4, 0.2% TX-100, 2% BSA, 0.1% NaN3) with 1:50 dilution of anti-α-tubulin-FITC antibody was added to all samples. The samples were allowed to incubate at room temperature in the dark for 2.5 hours, after which the coverslips were washed three times with PBS+0.1% TX-100. […]

[4] = tested on: HL-60; assay: 48-hour IC50 by MTS, HL-60 acute promyelocytic leukemia cells; format: cell-based, human
Description: (§1) Cells were grown in media supplemented with fetal bovine serum (FBS) and antibiotics (100 μg/mL penicillin and 100 U/mL streptomycin). […] Cells were incubated at 37° C. in a 5% CO2, 95% humidity atmosphere.
(§2) In a 96-well plate, compounds were pre-added as DMSO stocks (1% final) in triplicate to achieve final concentrations of 1 nM to 10 μM on a half log scale. DMSO and cell-free wells served as the live and dead control, respectively. […] IC50 values were determined from three or more independent experiments using TableCurve (San Jose, Calif.).

[5] = tested on: procaspase-3 and PARP-1 cleavage; assay: Western blot analysis of procaspase-3 and PARP-1 cleavage in U-937 cells; format: cell-based, human; conditions: 24 hours
Description: FIG. 2. […] Western blot analysis of procaspase-3 and PARP-1 cleavage at 24 hours in U-937 cells using β-actin as loading control. Compounds were tested at indicated concentrations and STS (10 nM); C3=caspase-3; PARP=poly(ADP-ribose) polymerase 1; PC3=procaspase-3; STS=staurosporine.

[6] = tested on: U-937; assay: 48-hour IC50 by MTS, U-937 lymphoma cells; format: cell-based, human
Description: as §1, §2

[7] = tested on: Jurkat; assay: 48-hour IC50 by MTS, Jurkat acute T-cell leukemia cells; format: cell-based, human
Description: as §1, §2

CN1C(=O)N[C@H]2[C@@H]3NC(=O)c4ccc(Br)n4[C@@H]3C[C@]21O [(−)-1, (−)-agelastatin A]
activity (ability to induce cell death) in words [1]: highest potency in all cell lines tested
nonspecific hemolysis of red blood cells ([2]; compounds at 333 μM): none
concentration without affecting normal red blood cells [2]: > 333 µM
effect on tubulin dynamics [3]: do not affect tubulin dynamics
IC50 [4]: 138 ± 66 nM
activation of procaspase-3 to active caspase-3 and cleavage of PARP-1 [5]: dose-dependent activation
IC50 [6]: 67 ± 3 nM
IC50 [7]: 74 ± 7 nM
